US6475953B1, “Composition and method for treating plants with exogenous chemicals” (Monsanto Technology LLC, priority 1996, dated 2002)

Assays:
Format in all cases: in vivo
[1] = test system: plant species indicated in the Example (ABUTH, ECHCF, SIDSP ...); experiment: Greenhouse herbicidal effectiveness test, stated overall or averaged over the plant species of the Example; settings: statement in the discussion of the Example at the place; rates and comparators as stated there
Excerpt: (§1) The herbicidal effectiveness data set forth herein report “inhibition” as a percentage following a standard procedure in the art which reflects a visual assessment of plant mortality and growth reduction by comparison with untreated plants, made by technicians specially trained to make and record such observations. In all cases. a single technician makes all assessments of percent inhibition within any one experiment or trial. Such measurements are relied upon and regularly reported by Monsanto Company in the course of its herbicide business.
The following procedure was used for testing compositions of the Examples to determine herbicidal effectiveness, except where otherwise indicated. […]
(§2) A set of pots was left untreated as a reference against which effects of the treatments could later be evaluated.
Application of glyphosate compositions was made by spraying with a track sprayer fitted with a 9501E nozzle calibrated to deliver a spray volume of 93 liters per hectare (1/ha) at a pressure of 166 kilopascals (kPa). After treatment, pots were returned to the greenhouse until ready for evaluation. […]
(§3) For evaluation of herbicidal effectiveness, all plants in the test were examined by a single practiced technician, who recorded percent inhibition, a visual measurement of the effectiveness of each treatment by comparison with untreated plants.

[2] = test system: Velvetleaf (Abutilon theophrasti, ABUTH); experiment: Greenhouse herbicidal effectiveness test, percent inhibition, velvetleaf
Excerpt: as §1
(§4) The following procedure was used for testing compositions of the Examples to determine herbicidal effectiveness, except where otherwise indicated.
(§5) Seeds of the plant species indicated were planted in 85 mm square pots in a soil mix which was previously steam sterilized and prefertilized with a 14-14-14 NPK slow release fertilizer at a rate of 3.6 kg/m3. The pots were placed in a greenhouse with sub-irrigation. About one week after emergence, seedlings were thinned as needed, including removal of any unhealthy or abnormal plants, to create a uniform series of test pots.
(§6) The plants were maintained for the duration of the test in the greenhouse where they received a minimum of 14 hours of light per day. If natural light was insufficient to achieve the daily requirement, artificial light with an intensity of approximately 475 microeinsteins was used to make up the difference. Exposure temperatures were not precisely controlled but averaged about 27° C. during the day and about 18° C. during the night. Plants were sub-irrigated throughout the test to ensure adequate soil moisture levels.
as §2
(§7) Application of glyphosate compositions was made by spraying with a track sprayer fitted with a 9501E nozzle calibrated to deliver a spray volume of 93 liters per hectare (1/ha) at a pressure of 166 kilopascals (kPa). After treatment, pots were returned to the greenhouse until ready for evaluation.
(§8) Treatments were made using dilute aqueous compositions. These could be prepared as spray compositions directly from their ingredients, or by dilution with water of preformulated concentrate compositions.
as §3
(§9) Velvetleaf (Abutilon theophrasti, ABUTH) and Japanese millet (Echinochloa crus-galli, ECHCF) plants were grown and treated by the standard procedures given above. […]

[3] = test system: Prickly sida (Sida spinosa, SIDSP); experiment: Greenhouse herbicidal effectiveness test, percent inhibition, prickly sida
Excerpt: as §1, §4, §5, §6, §2, §7, §8
For evaluation of herbicidal effectiveness, all plants in the test were examined by a single practiced technician, who recorded percent inhibition, a visual measurement of the effectiveness of each treatment by comparison with untreated plants. […]
Prickly sida (Sida spinosa, SIDSP) plants were grown and treated by the standard procedures given above. Applications of spray compositions were made 22 days after planting SIDSP, and evaluation of herbicidal inhibition was done 19 days after application.
Prickly sida (Sida spinosa, SIDSP) plants were grown and treated by the standard procedures given above. Applications of spray compositions were made 23 days after planting SIDSP, and […].
Prickly sida (Sida spinosa, SIDSP) plants were grown and treated by the standard procedures given above. Applications of spray compositions were made 22 days after planting SIDSP, and evaluation of herbicidal inhibition was done 19 days after application. […]

[4] = test system: Japanese millet (Echinochloa crus-galli, ECHCF); experiment: Greenhouse herbicidal effectiveness test, percent inhibition, Japanese millet; settings: for % Inhibition ECHCF: Example 90, evaluation 11 days after application
Excerpt: as §1, §4, §5, §6, §2, §7, §8, §3, §9

[5] = Example 90, glufosinate rate 50 g a.i./ha, evaluation 11 days after application
[6] = Sida spinosa, 240 h, read-out: % Inhibition SIDSP
[7] = Echinochloa crus-galli, 240 h, read-out: % Inhibition ECHCF

**Q.** Which “herbicidal effectiveness, overall for the species of the Example, in words” value [1] does the source give for ceteareth-30 here?
**A.** more effective additives for Formulation B than steareth-10

**Q.** For `O=C(O)CNCP(=O)(O)O` [glyphosate, N-phosphonomethylglycine, reference compound], which “average inhibition of ABUTH” value ([2]; Example 27, average over four glyphosate rates, no excipient, 19 days after application) is on record?
**A.** 32%

**Q.** With `COc1c(Cl)ccc(Cl)c1C(=O)O` [Dicamba (technical)] as the molecule, how does the “% Inhibition SIDSP” value ([3]; dicamba rate 25 g a.i./ha, evaluation 17 days after application) read?
**A.** 30%

**Q.** And the “% Inhibition SIDSP” value ([3]; dicamba rate 50 g a.i./ha, evaluation 17 days after application)?
**A.** 40%

**Q.** What about the “% Inhibition SIDSP” value ([3]; dicamba rate 100 g a.i./ha, evaluation 17 days after application) of the same molecule?
**A.** 50%

**Q.** And the “% Inhibition SIDSP” value ([3]; dicamba rate 200 g a.i./ha, evaluation 17 days after application)?
**A.** 58%

**Q.** For Steareth-20, which “herbicidal effectiveness, overall for the species of the Example, in words” value [1] is on record?
**A.** more effective additives for Formulation B than steareth-10

**Q.** For `C[N+](C)(C)CCCNS(=O)(=O)C(F)(F)C(F)(F)C(F)(F)C(F)(F)C(F)(F)C(F)(F)C(F)(F)C(F)(F)F.[I-]` [Fluorad FC-135, 3-(((heptadecafluorooctyl)sulfonyl)amino)-N,N,N-trimethyl-1-propaminium iodide], which “concentration of Fluorad FC-135 which had to be added in tank-mix to Formulation B to bring its herbicidal performance up to that of Formulation C” value (“concentration … of Formulation C” below) ([3]; Example 21, SIDSP, 20 days after application) is on record?
**A.** ~0.1%

**Q.** And the “concentration … of Formulation C” value ([4]; Example 21, ECHCF, after application)?
**A.** approximately 0.25%

**Q.** What about the optimum adjuvant concentration ([4]; Example 25, ECHCF, tank-mix adjuvant for glyphosate as Formulation B, 21 days after application) of the same molecule?
**A.** 0.2%

**Q.** And the “concentration … of Formulation C” value ([2]; Example 21, ABUTH, 20 days after application)?
**A.** ~0.02%

**Q.** What about the optimum adjuvant concentration ([2]; Example 25, ABUTH, tank-mix adjuvant for glyphosate as Formulation B, 21 days after application) of the same molecule?
**A.** 0.2%

**Q.** What does the source list for `CP(=O)(O)CCC(N)C(=O)O` (stereo not drawn) [Glufosinate (technical)]?
**A.** % Inhibition SIDSP [3, 5]: 5%; % Inhibition SIDSP ([3]; Example 90, glufosinate rate 100 g a.i./ha, evaluation 11 days after application): 10%; % Inhibition ECHCF ([4]; glufosinate rate 50 g a.i./ha): 0%; % Inhibition ECHCF ([4]; glufosinate rate 100 g a.i./ha): 0%; % Inhibition ABUTH [2, 5]: 0%

**Q.** `O=C(O)c1cc(Oc2ccc(C(F)(F)F)cc2Cl)ccc1[N+](=O)[O-]` [Acifluorfen] was tested. Which inhibition at 25 g/ha [3, 6] did it give?
**A.** 15%

**Q.** And the inhibition at 50 g/ha [3, 6]?
**A.** 17%

**Q.** What about the inhibition at 100 g/ha [3, 6] of the same molecule?
**A.** 35%

**Q.** And the inhibition at 200 g/ha [3, 6]?
**A.** 40%

**Q.** And the inhibition at 25 g/ha [4, 7]?
**A.** 2%

**Q.** And the inhibition at 50 g/ha [4, 7]?
**A.** 7%

**Q.** What about the inhibition at 100 g/ha [4, 7] of the same molecule?
**A.** 18%

**Q.** And the inhibition at 200 g/ha [4, 7]?
**A.** 35%

**Q.** And the inhibition at 25 g/ha ([2]; Abutilon theophrasti, 240 h, Example 83, acifluorfen rate 25 g a.i./ha, evaluated 10 days after application)?
**A.** 20%

**Q.** What about the inhibition at 50 g/ha ([2]; Abutilon theophrasti, 240 h, Example 83, acifluorfen rate 50 g a.i./ha, evaluated 10 days after application) of the same molecule?
**A.** 32%

**Q.** What about the inhibition at 100 g/ha ([2]; Abutilon theophrasti, 240 h, Example 83, acifluorfen rate 100 g a.i./ha, evaluated 10 days after application) of the same molecule?
**A.** 52%

**Q.** And the inhibition at 200 g/ha ([2]; Abutilon theophrasti, 240 h, Example 83, acifluorfen rate 200 g a.i./ha, evaluated 10 days after application)?
**A.** 62%

**Q.** With `COC(=O)NS(=O)(=O)c1ccc(N)cc1` [Asulam (technical)] as the molecule, how does the “% Inhibition ABUTH” value ([2]; asulam rate 400 g a.i./ha, evaluation 14 days after application) read?
**A.** 17%
